Measured values reported in ChEMBL document CHEMBL5661967, “Antitumor activity of HKI-272, an orally active, irreversible inhibitor of the HER-2 tyrosine kinase” (Cancer Res, 2004).
Calls of active or inactive are those of the source. No cut-off for these calls is given here.

Experiments:
[1] = biological target: Cyclin-dependent kinase 4/cyclin D1 (Homo sapiens, UniProt P11802); test: Inhibition of recombinant CDK4/cyclin D1 (unknown origin) using protein as substrate; type: protein-complex assay
[2] = biological target: Cyclin-dependent kinase 2/cyclin E1 (Homo sapiens, UniProt P24941); test: Inhibition of recombinant CDK2/cyclin E (unknown origin) using protein as substrate; type: protein-complex assay
[3] = biological target: Hepatocyte growth factor receptor (Homo sapiens, UniProt P08581); test: Inhibition of recombinant c-Met autophosphorylation (unknown origin)
[4] = biological target: Proto-oncogene tyrosine-protein kinase Src (Homo sapiens, UniProt P12931); test: Inhibition of recombinant Src (unknown origin) using peptide as substrate
Homo sapiens = species on record: Homo sapiens; test: Selectivity ratio of IC50 for recombinant KDR (unknown origin) to IC50 for recombinant N-terminal His6-tagged HER2 cytoplasmic domain (676 to 1255 residues)(unknown origin) expressed in baculovirus infected Sf9 insect cells
[5] = Cytotoxicity against mouse 3T3 cells assessed as inhibition of cell proliferation measured after 2 days by sulforhodamine B assay; type: toxicity, cell-based; settings: NIH3T3 (3T3) cells
SK-BR-3 = test: Antiproliferative activity against human SK-BR-3 cells measured after 2 days by sulforhodamine B assay; type: functional, cell-based; settings: SK-BR-3, 48 h
A-431 [6] = test: Antiproliferative activity against human A-431 cells measured after 2 days by sulforhodamine B assay; type: functional, cell-based; settings: A-431, 48 h
MDA-MB-435 = test: Antiproliferative activity against human MDA-MB-435 cells measured after 2 days by sulforhodamine B assay; type: functional, cell-based; settings: MDA-MB-435, 48 h
[7] = biological target: T1, Receptor tyrosine-protein kinase erbB-2 (Homo sapiens, UniProt P04626); test: Irreversible inhibition of HER2 autophosphorylation in human BT-474 cells at 1 uM incubated for 3 hrs followed by compound washout and further incubated for 5 hrs by Western blot analysis relative to control; type: cell-based
[8] = biological target: T1, Receptor tyrosine-protein kinase erbB-2; test: Inhibition of [14C]HKI-272 binding to recombinant N-terminal His6-tagged HER2 cytoplasmic domain (676 to 1255 residues)(unknown origin) expressed in baculovirus infected Sf9 insect cells at 5 uM measured after 15 mins by fluorography
[9] = biological target: T1, Receptor tyrosine-protein kinase erbB-2; test: Binding affinity to HER2 in human […] cells at 1 uM measured after 15 mins by immunoprecipitation assay; type: cell-based; settings: BT-474
BT-474 [10] = test: Cell cycle arrest in human BT-474 cells assessed as down regulation of cyclin D1 expression incubated for 12 to 16 hrs by Western blot analysis; type: functional, cell-based
BT-474 [11] = test: Cell cycle arrest in human BT-474 cells assessed as down regulation of Rb expression at 1 to 10 nM incubated for 12 to 16 hrs by Western blot analysis; type: functional, cell-based; settings: dose 1-10 nM, time 12-16 hrs
BT-474 [12] = test: Cell cycle arrest in human BT-474 cells assessed as accumulation of cells at Sub-G1 phase at 0.2 nM measured after 12 to 16 hrs by propidium iodide staining based flow cytometry (reference value: 8%); type: functional; settings: time 12-16 hrs
BT-474 [13] = test: Cell cycle arrest in human BT-474 cells assessed as accumulation of cells at Sub-G1 phase at 0.4 nM measured after 12 to 16 hrs by propidium iodide staining based flow cytometry (reference value: 8%); type: functional; settings: time 12-16 hrs
BT-474 [14] = test: Cell cycle arrest in human BT-474 cells assessed as accumulation of cells at S phase at 2 nM measured after 12 to 16 hrs by propidium iodide staining based flow cytometry (reference value: 21%); type: functional; settings: time 12-16 hrs
BT-474 [15] = test: Cell cycle arrest in human BT-474 cells assessed as accumulation of cells at S phase at 2 nM measured after 12 to 16 hrs by BrdUrd uptake assay (reference value: 26%); type: functional; settings: time 12-16 hrs
BT-474 [16] = test: Cell cycle arrest in human BT-474 cells assessed as accumulation of cells at G2/M phase at 0.4 nM measured after 12 to 16 hrs by propidium iodide staining based flow cytometry (reference value: 11%); type: functional; settings: time 12-16 hrs
BT-474 [17] = test: Cell cycle arrest in human BT-474 cells assessed as accumulation of cells at G2/M phase at 2 nM measured after 12 to 16 hrs by propidium iodide staining based flow cytometry (reference value: 11%); type: functional; settings: time 12-16 hrs
NIH3T3 [18] = test: Antitumor activity against mouse 3T3 cells transfected with HER-2 oncogene implanted in po dosed athymic nude mouse assessed as tumor growth inhibition administered daily for 10 days via gavage and measured on day 21; type: functional, organism-based; settings: dose 20-80 mg/kg, time 21.0 day
NIH3T3 [19] = test: Antitumor activity against mouse 3T3 cells transfected with HER-2 oncogene implanted in athymic nude mouse assessed as tumor growth inhibition at 20 mg/kg, po administered daily for 10 days via gavage and measured on day 21 relative to control; type: functional; settings: NIH3T3, 504 h, time 21 day, read-out: TGI
BT-474 [20] = test: Antitumor activity against human BT-474 cells xenografted in athymic nude mouse assessed as tumor growth inhibition at 10 mg/kg, po administered daily for 20 days via gavage and measured on day 28 relative to control; type: functional; settings: BT-474, 672 h, time 28 day, read-out: TGI
BT-474 [21] = test: Antitumor activity against human BT-474 cells xenografted in athymic nude mouse assessed as tumor growth inhibition at 5 mg/kg, po administered daily for 20 days via gavage and measured on day 21 relative to control; type: functional; settings: BT-474, 504 h, time 21 day, read-out: TGI
BT-474 [22] = test: Antitumor activity against human BT-474 cells xenografted in athymic nude mouse assessed as tumor growth inhibition at 40 mg/kg, po administered daily for 20 days via gavage and measured on day 21 relative to control; type: functional; settings: BT-474, 504 h, time 21 day, read-out: TGI
[23] = In vivo inhibition of HER2 autophosphorylation in human BT-474 cells xenografted athymic nude mouse at 40 mg/kg, po administered as single dose via gavage measured after 6 hrs by immunoblot analysis relative to control; type: functional
SK-OV-3 = test: Antitumor activity against human SK-OV-3 cells xenografted in po dosed athymic nude mouse assessed as tumor growth inhibition administered daily for 20 days via gavage and measured on day 21; type: functional, organism-based; settings: dose 10-60 mg/kg, time 21.0 day
A-431 [24] = test: Antitumor activity against human A-431 cells xenografted in athymic nude mouse assessed as tumor growth inhibition at 5 mg/kg, po administered daily for 10 days via gavage and measured on day 15 relative to control; type: functional; settings: A-431, 360 h, time 15 day, read-out: TGI
A-431 [25] = test: Antitumor activity against human A-431 cells xenografted in athymic nude mouse assessed as tumor growth inhibition at 20 mg/kg, po administered daily for 10 days via gavage and measured on day 15 relative to control; type: functional; settings: A-431, 360 h, time 15 day, read-out: TGI
MX1 = test: Antitumor activity against human MX1 cells xenografted in athymic nude mouse assessed as tumor growth inhibition; type: functional, cell-based
[26] = Toxicity in mouse 3T3 cells transfected with HER-2 oncogene implanted athymic nude mouse assessed as body weight loss at 20 to 80 mg/kg, po administered daily for 10 days; type: organism-based, NIH3T3; settings: in vivo, 240 h, dose 20-80 mg/kg, time 10 day
[27] = Toxicity in human BT-474 cells xenografted athymic nude mouse assessed as body weight loss at 10 to 40 mg/kg, po administered daily via gavage for 20 days; type: organism-based; settings: in vivo, 480 h, dose 10-40 mg/kg, time 20 day
[28] = Toxicity in human SK-OV-3 cells xenografted athymic nude mouse assessed as body weight loss at 10 to 60 mg/kg, po administered daily via gavage for 20 days; type: organism-based; settings: in vivo, 480 h, dose 10-60 mg/kg, time 20 day

T1 sequence (P04626 whole entry, the tested form may be a part): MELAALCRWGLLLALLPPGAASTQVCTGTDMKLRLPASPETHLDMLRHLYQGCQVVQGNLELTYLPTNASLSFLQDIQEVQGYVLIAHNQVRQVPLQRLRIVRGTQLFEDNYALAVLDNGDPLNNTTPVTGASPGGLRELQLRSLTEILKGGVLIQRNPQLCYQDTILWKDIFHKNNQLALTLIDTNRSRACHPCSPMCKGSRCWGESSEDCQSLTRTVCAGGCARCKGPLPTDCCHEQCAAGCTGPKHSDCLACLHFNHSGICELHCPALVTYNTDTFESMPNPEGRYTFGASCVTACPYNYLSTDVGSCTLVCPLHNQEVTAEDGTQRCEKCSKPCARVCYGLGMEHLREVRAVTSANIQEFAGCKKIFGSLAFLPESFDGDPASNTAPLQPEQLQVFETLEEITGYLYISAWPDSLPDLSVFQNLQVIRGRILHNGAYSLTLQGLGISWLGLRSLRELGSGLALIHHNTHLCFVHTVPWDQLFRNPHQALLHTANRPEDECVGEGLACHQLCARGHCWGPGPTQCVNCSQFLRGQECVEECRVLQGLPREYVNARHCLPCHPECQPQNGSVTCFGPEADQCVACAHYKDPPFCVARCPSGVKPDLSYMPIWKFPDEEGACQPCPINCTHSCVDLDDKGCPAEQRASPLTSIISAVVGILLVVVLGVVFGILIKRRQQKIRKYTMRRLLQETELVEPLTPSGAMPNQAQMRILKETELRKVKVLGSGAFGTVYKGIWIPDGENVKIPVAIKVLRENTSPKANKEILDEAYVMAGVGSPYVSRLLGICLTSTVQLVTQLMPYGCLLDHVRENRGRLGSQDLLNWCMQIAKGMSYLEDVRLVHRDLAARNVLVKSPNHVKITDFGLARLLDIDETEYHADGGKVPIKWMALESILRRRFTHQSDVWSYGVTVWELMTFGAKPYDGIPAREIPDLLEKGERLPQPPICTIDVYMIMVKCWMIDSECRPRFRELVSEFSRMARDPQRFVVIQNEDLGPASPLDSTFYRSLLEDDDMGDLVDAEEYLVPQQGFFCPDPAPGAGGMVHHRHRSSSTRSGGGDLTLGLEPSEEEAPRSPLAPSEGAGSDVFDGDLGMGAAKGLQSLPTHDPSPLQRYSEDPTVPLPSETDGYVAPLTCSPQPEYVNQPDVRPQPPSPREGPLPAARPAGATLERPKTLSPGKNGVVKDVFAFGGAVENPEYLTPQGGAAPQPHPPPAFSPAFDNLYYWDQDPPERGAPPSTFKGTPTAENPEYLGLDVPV
Hepatocyte growth factor receptor, sequence (P08581 whole entry): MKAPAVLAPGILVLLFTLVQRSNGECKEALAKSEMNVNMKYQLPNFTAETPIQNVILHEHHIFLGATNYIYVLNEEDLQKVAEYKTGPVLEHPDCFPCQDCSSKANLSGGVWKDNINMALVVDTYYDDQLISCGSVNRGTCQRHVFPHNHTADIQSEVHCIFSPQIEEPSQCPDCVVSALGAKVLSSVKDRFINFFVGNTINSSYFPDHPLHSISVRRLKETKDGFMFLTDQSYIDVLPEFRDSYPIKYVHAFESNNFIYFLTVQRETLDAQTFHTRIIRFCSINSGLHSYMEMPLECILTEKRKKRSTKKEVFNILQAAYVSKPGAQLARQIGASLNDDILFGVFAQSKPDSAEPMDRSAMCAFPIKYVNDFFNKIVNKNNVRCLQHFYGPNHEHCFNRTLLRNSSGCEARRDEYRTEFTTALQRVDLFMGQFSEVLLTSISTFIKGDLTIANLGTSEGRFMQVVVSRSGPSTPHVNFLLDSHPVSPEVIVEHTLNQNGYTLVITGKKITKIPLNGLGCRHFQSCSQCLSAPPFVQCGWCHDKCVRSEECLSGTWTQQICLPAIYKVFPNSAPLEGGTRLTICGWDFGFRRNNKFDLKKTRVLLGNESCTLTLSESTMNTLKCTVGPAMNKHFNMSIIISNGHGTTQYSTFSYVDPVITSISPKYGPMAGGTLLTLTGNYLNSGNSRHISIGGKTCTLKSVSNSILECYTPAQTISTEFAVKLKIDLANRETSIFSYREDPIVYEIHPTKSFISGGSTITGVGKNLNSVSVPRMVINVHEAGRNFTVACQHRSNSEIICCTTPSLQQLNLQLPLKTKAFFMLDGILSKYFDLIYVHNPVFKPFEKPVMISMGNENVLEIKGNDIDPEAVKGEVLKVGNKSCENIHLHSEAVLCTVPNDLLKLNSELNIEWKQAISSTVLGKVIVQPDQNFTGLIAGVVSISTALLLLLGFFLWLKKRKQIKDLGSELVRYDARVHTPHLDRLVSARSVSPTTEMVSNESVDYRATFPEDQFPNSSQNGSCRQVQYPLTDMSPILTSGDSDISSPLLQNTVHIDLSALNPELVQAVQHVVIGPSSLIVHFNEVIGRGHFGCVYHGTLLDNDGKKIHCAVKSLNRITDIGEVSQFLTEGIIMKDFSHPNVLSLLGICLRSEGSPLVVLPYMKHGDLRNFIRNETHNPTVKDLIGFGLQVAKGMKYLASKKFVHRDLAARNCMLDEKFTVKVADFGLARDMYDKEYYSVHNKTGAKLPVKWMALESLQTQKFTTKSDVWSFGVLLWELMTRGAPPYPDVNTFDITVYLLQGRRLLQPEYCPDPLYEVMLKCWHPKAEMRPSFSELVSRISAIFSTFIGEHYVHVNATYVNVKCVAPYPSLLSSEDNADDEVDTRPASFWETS
Cyclin-dependent kinase 4/cyclin D1, sequence (P11802 whole entry): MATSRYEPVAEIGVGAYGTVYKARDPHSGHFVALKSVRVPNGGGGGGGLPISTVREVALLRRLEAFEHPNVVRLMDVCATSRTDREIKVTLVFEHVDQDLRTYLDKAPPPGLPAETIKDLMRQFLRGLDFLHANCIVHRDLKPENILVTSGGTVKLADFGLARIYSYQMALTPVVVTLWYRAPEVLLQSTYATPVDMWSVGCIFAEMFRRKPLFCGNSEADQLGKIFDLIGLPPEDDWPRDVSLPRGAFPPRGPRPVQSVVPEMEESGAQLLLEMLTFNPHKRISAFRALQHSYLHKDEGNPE
Cyclin-dependent kinase 4/cyclin D1, sequence (P24385 whole entry, further chain): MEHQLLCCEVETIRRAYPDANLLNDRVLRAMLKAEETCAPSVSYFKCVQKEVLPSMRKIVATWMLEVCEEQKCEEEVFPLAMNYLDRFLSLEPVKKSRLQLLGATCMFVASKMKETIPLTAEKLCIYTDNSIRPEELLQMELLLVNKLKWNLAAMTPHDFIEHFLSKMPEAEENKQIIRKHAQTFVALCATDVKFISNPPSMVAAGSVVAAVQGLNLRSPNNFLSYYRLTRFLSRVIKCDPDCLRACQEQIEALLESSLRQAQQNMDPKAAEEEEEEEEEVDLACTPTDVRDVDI
Proto-oncogene tyrosine-protein kinase Src, sequence (P12931 2-536 limits assumed): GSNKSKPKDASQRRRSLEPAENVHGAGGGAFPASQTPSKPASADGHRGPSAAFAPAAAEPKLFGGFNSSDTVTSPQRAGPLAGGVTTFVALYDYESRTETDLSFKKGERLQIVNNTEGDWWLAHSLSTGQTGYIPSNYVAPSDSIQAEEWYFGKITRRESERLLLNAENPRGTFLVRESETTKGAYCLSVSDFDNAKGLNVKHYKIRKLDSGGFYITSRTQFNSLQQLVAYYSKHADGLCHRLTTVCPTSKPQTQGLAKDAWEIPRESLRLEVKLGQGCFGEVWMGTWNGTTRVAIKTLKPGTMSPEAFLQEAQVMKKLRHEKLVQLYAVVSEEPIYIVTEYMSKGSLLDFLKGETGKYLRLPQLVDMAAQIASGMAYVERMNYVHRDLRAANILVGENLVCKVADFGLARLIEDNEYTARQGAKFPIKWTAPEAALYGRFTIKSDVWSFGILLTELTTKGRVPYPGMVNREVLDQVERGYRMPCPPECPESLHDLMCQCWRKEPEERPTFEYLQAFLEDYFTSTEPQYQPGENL

COc1cc2ncc(C#N)c(Nc3ccc(OCc4ccccn4)c(Cl)c3)c2cc1NC(=O)/C=C/CN(C)C
IC50 [1]: > 50000 nM
IC50 [2]: > 18000 nM
IC50 [3]: > 35000 nM
IC50 [4]: 1400 nM
Ratio IC50 (Homo sapiens): 14
IC50 at 2 days [5]: 700 nM
IC50 (SK-BR-3): 2 nM
IC50 (A-431 [6]): 81 nM
IC50 (MDA-MB-435): 960 nM
inhibition [7]: 97%
inhibition [8]: Active
Activity [9]: Active
IC50 (BT-474 [10]): 9 nM
Activity (BT-474 [11]): Active
Activity (BT-474 [12]): 9%
Activity (BT-474 [13]): 11%
Activity (BT-474 [14]): 12%
Activity (BT-474 [15]): 10%
Activity (BT-474 [16]): 13%
Activity (BT-474 [17]): 11%
TGI (NIH3T3 [18]): Dose-Dependent Effect
inhibition in vivo at 20 mg/kg (NIH3T3 [19]): 53%
inhibition in vivo at 10 mg/kg (BT-474 [20]): 67%
inhibition in vivo at 5 mg/kg (BT-474 [21]): 70%
inhibition in vivo at 40 mg/kg (BT-474 [22]): 88%
inhibition in vivo at 40 mg/kg [23]: 97%
TGI (SK-OV-3): Dose-Dependent Effect
inhibition in vivo at 5 mg/kg (A-431 [24]): 32%
inhibition in vivo at 20 mg/kg (A-431 [25]): 44%
TGI (MX1): inactive
Activity [26]: Non-Toxic
Activity [27]: Non-Toxic
Activity [28]: Non-Toxic
